According to patent US8637481B2, “Sensitizing agents for cancer therapy, methods of use and methods for the identification thereof” (University Health Network, priority 2009, dated 2014):

How the values were obtained:
FaDu cells [1] = assay: Cell viability assay (MTS); assay type: cell-based, human; conditions: IR 4 Gy, 96 h post-IR, siRNA 48 h transfection, ALA 250-1000 μM 4 h
From the text: The CeliTiter 96 AQueous One Solution Cell Proliferation Assay (3-(4,5-dimethylthiazol-2-yl)-5-(3-carboxymethoxyphenyl)-2-(4-sulfophenyl)-2H-tetrazolium, inner salt MTS (Promega, Madison, Wis.) was used to detect cell viability according to the manufacturer's specifications.

FaDu cells [2] = assay: Apoptotic fraction by flow cytometry post-IR; assay type: cell-based, human; conditions: deferoxamine 5 μM pre-treatment 24 h before IR 4 Gy, 72 h post-IR
Experimental: Flow cytometric analyses were performed on a FACSCalibur Flow Cytometer (BD Biosciences, San Jose, Calif.), equipped with FlowJo software (Tree Star, Ashland, Oreg.). Cell cycle distributions, caspase activation, and mitochondrial membrane potentials were measured as previously described. Intracellular ROS levels were quantified using the non-specific 5-(and 6-)chloromethyl-2′,7′-dichlorodihydrofluorescein diacetate (CM-H2DCFDA) dye, and the superoxide-selective dihydroethidium (DE) dye as instructed by the manufacturer (Invitrogen).
Transfected cells were immediately exposed to a continuous flow of humidified 0.2% O2 with 5% CO2 and balanced N2 (Praxair, Ontario, Canada) in an In Vivo2 400 Hypoxia Chamber (Ruskinn Technology, Pencoed, UK). An OxyLite 4000 oxygen-sensing probe (Oxford Optronix, Oxford, UK) was used to verify target O2 levels.

Compound	cytotoxicity plus IR (cell viability, MTS) (FaDu cells [1])	siUROD-plus-IR-induced apoptosis (FaDu cells [2])
Cl.NCC(=O)CCC(=O)O [ALA, δ-aminolevulinic acid hydrochloride]	negligible effects	–
deferoxamine mesylate salt	–	significant suppression
